pIC50: −log10 of the molar value.
Key:
[1] = Oral bioavailability in Sprague-Dawley rat; assay type: ADME, organism-based; details: in vivo
[2] = biological target: T1, Nav1.5 (sodium channel protein type 5 subunit alpha) (Homo sapiens, UniProt Q14524); experiment: Inhibition of human Nav1.5 channel at 10 uM
[3] = biological target: Sodium channel protein type 5 subunit alpha (Homo sapiens, UniProt Q14524); experiment: Inhibition of human Nav1.5 channel at 1 uM
[4] = Clearance in Sprague-Dawley rat plasma; assay type: ADME, organism-based
[5] = biological target: T1, Nav1.5 (sodium channel protein type 5 subunit alpha); experiment: Inhibition of human Nav1.5 channel at 3 uM
[6] = biological target: Sodium channel protein type 2 subunit alpha (Homo sapiens) (UniProt Q99250); experiment: Inhibition of human Nav1.2 channel at 3 uM
Rattus norvegicus [7] = experiment: Antinociceptive activity in ip dosed Sprague-Dawley rat assessed as attenuation of mechanical allodynia in chung model of neuropathic pain; assay type: functional
Translocator protein [8] = biological target: T2, Translocator protein (Homo sapiens, UniProt P30536); experiment: Binding affinity to peripheral benzodiazepine receptor
T2 sequence (P30536 whole entry): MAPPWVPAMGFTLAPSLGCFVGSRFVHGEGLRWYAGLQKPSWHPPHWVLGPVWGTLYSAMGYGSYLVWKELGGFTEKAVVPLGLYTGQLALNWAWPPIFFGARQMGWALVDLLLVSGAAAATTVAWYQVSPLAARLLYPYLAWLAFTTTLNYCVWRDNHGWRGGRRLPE

[9] = Bioavailability in Sprague-Dawley rat at 10 mg/kg, ip; assay type: ADME, organism-based; details: in vivo
[10] = Volume of distribution at steady state in Sprague-Dawley rat; assay type: ADME, organism-based; details: in vivo, read-out: Vdss
[11] = biological target: Sodium channel protein type 3 subunit alpha (Homo sapiens) (UniProt Q9NY46); experiment: Inhibition of human Nav1.3 channel at 3 uM
Sequence of Sodium channel protein type 3 subunit alpha (Homo sapiens) (Q9NY46 whole entry, looked up): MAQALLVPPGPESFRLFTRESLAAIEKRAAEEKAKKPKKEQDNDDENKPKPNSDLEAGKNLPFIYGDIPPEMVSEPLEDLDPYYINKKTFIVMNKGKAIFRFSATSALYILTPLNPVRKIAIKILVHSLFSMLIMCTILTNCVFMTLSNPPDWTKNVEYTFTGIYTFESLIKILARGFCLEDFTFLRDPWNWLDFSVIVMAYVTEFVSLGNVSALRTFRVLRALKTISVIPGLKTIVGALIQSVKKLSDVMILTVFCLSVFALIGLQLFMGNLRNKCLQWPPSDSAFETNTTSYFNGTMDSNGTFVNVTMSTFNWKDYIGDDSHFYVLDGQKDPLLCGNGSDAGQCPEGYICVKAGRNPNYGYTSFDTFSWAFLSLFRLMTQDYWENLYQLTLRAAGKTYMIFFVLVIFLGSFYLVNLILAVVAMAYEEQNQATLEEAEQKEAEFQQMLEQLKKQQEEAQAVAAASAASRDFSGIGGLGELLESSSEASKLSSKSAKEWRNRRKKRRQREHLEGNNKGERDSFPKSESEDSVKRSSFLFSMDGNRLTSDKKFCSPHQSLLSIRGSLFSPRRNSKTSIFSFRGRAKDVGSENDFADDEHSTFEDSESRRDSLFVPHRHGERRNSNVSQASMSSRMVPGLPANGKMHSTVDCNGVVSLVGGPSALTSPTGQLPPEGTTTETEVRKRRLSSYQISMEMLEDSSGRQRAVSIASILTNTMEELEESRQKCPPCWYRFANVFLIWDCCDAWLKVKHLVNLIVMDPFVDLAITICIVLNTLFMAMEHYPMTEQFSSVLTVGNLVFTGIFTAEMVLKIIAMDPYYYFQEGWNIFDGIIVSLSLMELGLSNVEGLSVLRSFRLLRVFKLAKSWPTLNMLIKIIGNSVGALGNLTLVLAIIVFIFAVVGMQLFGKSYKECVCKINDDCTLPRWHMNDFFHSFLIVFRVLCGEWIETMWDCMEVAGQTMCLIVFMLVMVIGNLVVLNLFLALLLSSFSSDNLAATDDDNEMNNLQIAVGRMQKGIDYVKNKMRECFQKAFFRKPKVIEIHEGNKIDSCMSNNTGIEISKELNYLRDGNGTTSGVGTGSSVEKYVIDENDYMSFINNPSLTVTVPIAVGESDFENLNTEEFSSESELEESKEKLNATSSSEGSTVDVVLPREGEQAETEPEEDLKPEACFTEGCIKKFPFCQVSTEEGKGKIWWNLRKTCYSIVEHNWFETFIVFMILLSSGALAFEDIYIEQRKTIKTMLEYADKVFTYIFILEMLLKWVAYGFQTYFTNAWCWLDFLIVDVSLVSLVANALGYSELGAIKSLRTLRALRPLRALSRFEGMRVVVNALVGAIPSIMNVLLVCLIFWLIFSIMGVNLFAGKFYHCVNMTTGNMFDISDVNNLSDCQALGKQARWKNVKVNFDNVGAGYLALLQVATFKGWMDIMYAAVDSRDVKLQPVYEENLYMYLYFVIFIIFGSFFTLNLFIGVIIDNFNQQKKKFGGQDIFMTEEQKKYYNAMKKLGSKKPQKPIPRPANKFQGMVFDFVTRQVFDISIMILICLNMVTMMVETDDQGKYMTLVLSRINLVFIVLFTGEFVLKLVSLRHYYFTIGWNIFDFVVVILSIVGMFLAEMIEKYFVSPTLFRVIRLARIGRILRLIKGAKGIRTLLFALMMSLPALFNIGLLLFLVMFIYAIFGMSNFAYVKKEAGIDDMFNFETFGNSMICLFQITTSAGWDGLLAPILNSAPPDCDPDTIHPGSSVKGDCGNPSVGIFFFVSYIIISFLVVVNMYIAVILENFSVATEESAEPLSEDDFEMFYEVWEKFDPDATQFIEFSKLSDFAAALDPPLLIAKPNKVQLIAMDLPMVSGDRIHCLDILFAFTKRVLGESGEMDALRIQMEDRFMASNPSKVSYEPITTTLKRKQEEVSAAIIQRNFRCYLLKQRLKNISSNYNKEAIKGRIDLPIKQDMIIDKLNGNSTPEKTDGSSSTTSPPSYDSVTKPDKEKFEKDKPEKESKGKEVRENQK

Rattus norvegicus [12] = experiment: Antinociceptive activity in ip dosed Sprague-Dawley rat assessed as reduction of CFA-induced thermal hyperalgesia; assay type: functional; parameters: Activity: scale not given: the % may be the effect or the level left
[13] = biological target: T3, Sodium channel protein type 10 subunit alpha (Homo sapiens, UniProt Q9Y5Y9); experiment: Inhibition of human recombinant Nav 1.8 channel expressed in HEK293 cells; assay type: cell-based
Target sequence in this assay (Q9Y5Y9 whole entry): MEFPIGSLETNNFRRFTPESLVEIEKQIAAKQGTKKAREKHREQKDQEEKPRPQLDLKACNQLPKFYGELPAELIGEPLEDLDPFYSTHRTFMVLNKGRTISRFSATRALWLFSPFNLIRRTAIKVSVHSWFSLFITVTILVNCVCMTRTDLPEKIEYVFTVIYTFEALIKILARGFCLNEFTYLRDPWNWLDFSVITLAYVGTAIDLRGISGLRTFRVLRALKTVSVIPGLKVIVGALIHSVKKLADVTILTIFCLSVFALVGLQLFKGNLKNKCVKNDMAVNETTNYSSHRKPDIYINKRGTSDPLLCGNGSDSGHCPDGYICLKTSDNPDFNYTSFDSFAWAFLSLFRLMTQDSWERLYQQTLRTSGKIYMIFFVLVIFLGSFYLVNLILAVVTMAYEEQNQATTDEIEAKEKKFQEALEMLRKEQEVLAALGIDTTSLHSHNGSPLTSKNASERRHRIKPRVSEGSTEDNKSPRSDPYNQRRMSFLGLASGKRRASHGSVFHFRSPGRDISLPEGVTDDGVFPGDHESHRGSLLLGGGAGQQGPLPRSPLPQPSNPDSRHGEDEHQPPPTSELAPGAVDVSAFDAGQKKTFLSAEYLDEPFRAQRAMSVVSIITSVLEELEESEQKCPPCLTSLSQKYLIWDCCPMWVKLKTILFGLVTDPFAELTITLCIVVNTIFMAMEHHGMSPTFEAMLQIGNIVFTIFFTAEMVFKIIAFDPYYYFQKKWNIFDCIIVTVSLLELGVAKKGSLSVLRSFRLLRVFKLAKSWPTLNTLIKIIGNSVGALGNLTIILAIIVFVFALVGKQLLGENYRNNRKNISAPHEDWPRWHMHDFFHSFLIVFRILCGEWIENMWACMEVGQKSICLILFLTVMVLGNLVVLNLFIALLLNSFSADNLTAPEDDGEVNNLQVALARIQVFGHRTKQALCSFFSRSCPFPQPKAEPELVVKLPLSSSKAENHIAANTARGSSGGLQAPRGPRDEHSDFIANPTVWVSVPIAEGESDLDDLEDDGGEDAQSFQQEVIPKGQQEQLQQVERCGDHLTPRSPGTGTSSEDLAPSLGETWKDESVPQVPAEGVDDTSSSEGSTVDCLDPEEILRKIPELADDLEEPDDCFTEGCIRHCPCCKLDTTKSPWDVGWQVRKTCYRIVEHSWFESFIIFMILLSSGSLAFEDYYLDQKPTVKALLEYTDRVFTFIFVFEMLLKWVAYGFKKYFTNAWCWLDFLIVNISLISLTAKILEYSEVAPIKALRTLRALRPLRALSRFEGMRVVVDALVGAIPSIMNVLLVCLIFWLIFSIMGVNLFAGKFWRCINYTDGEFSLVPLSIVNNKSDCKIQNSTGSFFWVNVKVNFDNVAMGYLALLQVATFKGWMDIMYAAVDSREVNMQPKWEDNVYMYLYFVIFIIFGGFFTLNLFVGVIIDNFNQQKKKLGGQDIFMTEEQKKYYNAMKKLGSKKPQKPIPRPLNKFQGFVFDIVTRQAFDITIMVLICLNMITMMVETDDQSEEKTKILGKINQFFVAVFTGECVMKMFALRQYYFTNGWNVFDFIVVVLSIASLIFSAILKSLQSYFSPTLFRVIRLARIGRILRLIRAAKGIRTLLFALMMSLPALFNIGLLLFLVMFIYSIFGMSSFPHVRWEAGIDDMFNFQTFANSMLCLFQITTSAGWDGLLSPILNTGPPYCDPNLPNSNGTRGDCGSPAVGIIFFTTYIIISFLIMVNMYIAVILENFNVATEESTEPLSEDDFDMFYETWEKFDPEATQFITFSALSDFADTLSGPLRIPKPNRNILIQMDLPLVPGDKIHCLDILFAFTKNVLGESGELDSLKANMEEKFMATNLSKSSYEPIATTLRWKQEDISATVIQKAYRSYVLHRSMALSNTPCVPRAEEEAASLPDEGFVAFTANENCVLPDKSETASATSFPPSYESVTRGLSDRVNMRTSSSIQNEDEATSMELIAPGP

[14] = biological target: Sodium channel protein type 9 subunit alpha (Homo sapiens) (UniProt Q15858); experiment: Inhibition of human Nav1.7 channel at 3 uM
Translocator protein [15] = biological target: T2, Translocator protein; experiment: Binding affinity to peripheral benzodiazepine receptor at 10 uM
[16] = biological target: T3, Sodium channel protein type 10 subunit alpha; experiment: Activity at human recombinant Nav 1.8 channel expressed in HEK293 cells in resting state with prepulse voltage of -100 mV assessed as blockade of TTx-resistant sodium current at 0.01 uM; assay type: cell-based
Target sequence in this assay (Q9Y5Y9 whole entry, looked up): as the sequence (Q9Y5Y9 whole entry) above

[17] = Protein binding in Sprague-Dawley rat plasma; assay type: ADME, cell-free; details: read-out: PPB (converted)
[18] = biological target: Sodium channel protein type 3 subunit alpha (Homo sapiens) (UniProt Q9NY46); experiment: Inhibition of human Nav1.3 channel at 10 uM
[19] = Activity at rat dorsal root ganglion in inactivated state with prepulse voltage of -40 mV assessed as blockade of TTx-resistant sodium current at 0.1 uM by whole-cell patch clamp technique; assay type: functional
[20] = Activity at rat dorsal root ganglion in inactivated state with prepulse voltage of -40 mV assessed as blockade of TTx-resistant sodium current at 0.3 uM by whole-cell patch clamp technique; assay type: functional
[21] = biological target: T3, Sodium channel protein type 10 subunit alpha; experiment: Inhibition of human recombinant Nav 1.8 channel expressed in HEK293 cells at 0.01 uM; assay type: cell-based
Target sequence in this assay (Q9Y5Y9 whole entry, looked up): as the sequence (Q9Y5Y9 whole entry) above

[22] = biological target: T3, Sodium channel protein type 10 subunit alpha; experiment: Activity at human recombinant Nav 1.8 channel expressed in HEK293 cells in inactivated state with prepulse voltage of -40 mV assessed as blockade of TTx-resistant sodium current at 0.01 uM; assay type: cell-based
Target sequence in this assay (Q9Y5Y9 whole entry, looked up): as the sequence (Q9Y5Y9 whole entry) above

[23] = biological target: Sodium channel protein type 10 subunit alpha (Mus musculus, UniProt Q6QIY3); experiment: Inhibition of mouse recombinant Nav 1.8 channel expressed in HEK293 cells by isotopic efflux assay; assay type: cell-based
[24] = Half life in Sprague-Dawley rat; assay type: ADME, organism-based; details: in vivo
[25] = biological target: Sodium channel protein type 2 subunit alpha (Homo sapiens) (UniProt Q99250); experiment: Inhibition of human Nav1.2 channel at 10 uM
[26] = biological target: Voltage-gated inwardly rectifying potassium channel KCNH2 (Homo sapiens, UniProt Q12809); experiment: Inhibition of hERG potassium channel expressed in CHO cells by isotope efflux assay
[27] = biological target: T3, Sodium channel protein type 10 subunit alpha; experiment: Activity at human recombinant Nav 1.8 channel expressed in HEK293 cells in resting state with prepulse voltage of -100 mV assessed as blockade of TTx-resistant sodium current at 0.03 uM; assay type: cell-based
Target sequence in this assay (Q9Y5Y9 whole entry, looked up): as the sequence (Q9Y5Y9 whole entry) above

[28] = Activity at rat dorsal root ganglion in resting state with prepulse voltage of -100 mV assessed as blockade of TTx-resistant sodium current at 0.3 uM by whole-cell patch clamp technique; assay type: functional
[29] = Ratio of drug level in brain to plasma in Sprague-Dawley rat; assay type: ADME
[30] = biological target: T3, Sodium channel protein type 10 subunit alpha; experiment: Inhibition of human recombinant Nav 1.8 channel expressed in HEK293 cells at 0.03 uM; assay type: cell-based
Target sequence in this assay (Q9Y5Y9 whole entry, looked up): as the sequence (Q9Y5Y9 whole entry) above

[31] = Activity at rat dorsal root ganglion in resting state with prepulse voltage of -100 mV assessed as blockade of TTx-resistant sodium current at 0.1 uM by whole-cell patch clamp technique; assay type: functional
[32] = Intrinsic clearance in Sprague-Dawley rat microsomes after 1 hr; assay type: ADME, Liver, Microsome
Rattus norvegicus [33] = experiment: Antinociceptive activity in ip dosed Sprague-Dawley rat assessed as reduction of mechanical allodynia in Bennett model of neuropathic pain; assay type: functional; parameters: Activity: scale not given: the % may be the effect or the level left
[34] = biological target: T3, Sodium channel protein type 10 subunit alpha; experiment: Activity at human recombinant Nav 1.8 channel expressed in HEK293 cells in inactivated state with prepulse voltage of -40 mV assessed as blockade of TTx-resistant sodium current at 0.03 uM; assay type: cell-based
Target sequence in this assay (Q9Y5Y9 whole entry, looked up): as the sequence (Q9Y5Y9 whole entry) above

[35] = biological target: Sodium channel protein type 9 subunit alpha (Homo sapiens) (UniProt Q15858); experiment: Inhibition of human Nav1.7 channel at 10 uM
[36] = Cmax in Sprague-Dawley rat at 10 mg/kg, ip; assay type: ADME, organism-based; parameters: dose 10 mg/kg, route intraperitoneal; details: in vivo
[37] = Rattus norvegicus, Sprague-Dawley, ip

Cc1cccc(NC(=O)c2ccc(-c3ccc(C#N)cc3)o2)c1
bioavailability [1]: 4% | inhibition at 10 µM [2]: 74% | pIC50 [3]: < 5.70 | clearance [4]: 40 mL/min/kg | inhibition at 3 µM [5]: 61% | inhibition [6]: 32% | Activity (Rattus norvegicus [7]): 86% | ED50 (Rattus norvegicus [7]; [37]): 38 mg/kg | pIC50 (Translocator protein [8]): < 5.70 | bioavailability [9]: 36% | Vd [10]: 1.9 L/kg | inhibition [11]: 47% | Activity (Rattus norvegicus [12]): 55% | ED50 (Rattus norvegicus [12]; [37]): 98 mg/kg | pIC50 [13]: 7.10 | inhibition [14]: 26% | inhibition (Translocator protein [15]): > 60% | inhibition [16]: 14% | fraction unbound [17]: 0.017 | inhibition [18]: 58% | inhibition at 0.1 µM [19]: 41% | inhibition at 0.3 µM [20]: 74% | inhibition [21]: 33% | inhibition [22]: 33% | pIC50 [23]: 6.32 | half-life [24]: 1.9 h | inhibition [25]: 57% | pIC50 [26]: 5.24 | inhibition [27]: 29% | inhibition at 0.3 µM [28]: 52% | Kp [29]: 0.35 | inhibition [30]: 51% | inhibition at 0.1 µM [31]: 38% | microsomal CLint [32]: 260 µL/min/mg | Activity (Rattus norvegicus [33]): 21% | ED50 (Rattus norvegicus [33]; [37]): > 100 mg/kg | inhibition [34]: 51% | inhibition [35]: 54% | Cmax [36]: 750 ng/mL

From ChEMBL document CHEMBL1140726, “Discovery and biological evaluation of 5-aryl-2-furfuramides, potent and selective blockers of the Nav1.8 sodium channel with efficacy in models of neuropathic and inflammatory pain” (J Med Chem, 2008)
